Experiment [1] addresses T1, HBV polymerase reverse transcriptase (HBV-RT) (Hepatitis B virus genotype D subtype ayw, UniProt P03156).
T1 construct: made in house; host or cells: E. coli
Briefly: inhibitory activity against HBV polymerase in vitro (reverse transcriptase activity). The experiment is classed as biochemical. The following applies: read-out: Inhibitory effect of HBV-RT; for inhibition at 0.1 µg/mL: 0.1 μg/ml; for inhibition at 1 µg/mL: 1 μg/ml. From the text: Experiment 1: The inhibitory activity against HBV polymerase in vitro.
Recently, the inventors of the present invention have produced a recombinant HBV polymerase that is expressed from E.coli transformant, measured its enzyme activity and filed patent applications thereof [Korean Patent Application Nos. 94-3918, 96-33998 and 96-63255].
The inventions have established a method of measuring the reverse transcriptase activity of HBV polymerase in vitro. The fundamental principle is the same as the ELISA method, and after reacting the substrate with biotin- and DIG-modified nucleotide, a method of recognizing the polymerized substrate as anti-DIG antibody with peroxidase was used. […] and 20 μ of test compound were mixed and reacted at 14~30° C. for 18~24 hours. Then, the inhibitory effect of test compound against reverse trascriptase activity in the HBV polymerase was examined, compared with the results of control tests without the test compound.

Experiment [2] addresses T2, HIV reverse transcriptase (HIV-RT) (Human immunodeficiency virus type 1 group M subtype B, UniProt P04585).
T2 construct: purchased Boehringer Mannheim
The experiment can be described thus: in vitro inhibition test against HIV reverse transcriptase. The settings on record: read-out: Inhibitory effect of HIV-RT; for inhibition at 0.1 µg/mL: 0.1 μg/ml; for inhibition at 1 µg/mL: 1 μg/ml. The experiment is classed as biochemical, HIV (AIDS virus). On the procedure: Experiment 3: The in vitro inhibition test against HIV reverse transcriptase
The inhibitory activity in vitro was measured using a non-radioactive reverse transcriptase assay Kit (Boehringer Mannheim).
At first, 20 μl(40 ng) HIV-RT was added to the wells coated with streptavidin and with the addition of 20 μl, reaction mixture containing template/primer hybrid poly(A)/oligo(dT)15 and DIG-(digoxigenin)-dUTP, biotin-dUTP and TTP, 20 μl test compound was added and reacted at 37° C. for 1 hour. The control without test compound was used for the comparison of related activity. Since DNA containing nucleotide labeled with digoxigenin and biotine was prepared by the action of HIV-RT, it was combined with streptavidin coated at the bottom of the wells. After the reaction was completed, remaining impurities were removed by washing each well with 20 μl buffer solution (pH 7.0) for 30 seconds 5 times and with the addition of 200 μl anti-DIG-POD antibody, the mixture was reacted at 37° C. for 1 hour. For the removal of remaining impurities again, the reacting solution was washed with a buffer solution and with the addition of 200μl ABTS™ each, a substrate of POD(peroxidase), the solution was reacted at room temperature for 30 minutes. The absorbance was read by ELISA reader at 405 nm for the assay of reverse transcriptase activity and its inhibition activity.

T1 sequence (P03156 whole entry): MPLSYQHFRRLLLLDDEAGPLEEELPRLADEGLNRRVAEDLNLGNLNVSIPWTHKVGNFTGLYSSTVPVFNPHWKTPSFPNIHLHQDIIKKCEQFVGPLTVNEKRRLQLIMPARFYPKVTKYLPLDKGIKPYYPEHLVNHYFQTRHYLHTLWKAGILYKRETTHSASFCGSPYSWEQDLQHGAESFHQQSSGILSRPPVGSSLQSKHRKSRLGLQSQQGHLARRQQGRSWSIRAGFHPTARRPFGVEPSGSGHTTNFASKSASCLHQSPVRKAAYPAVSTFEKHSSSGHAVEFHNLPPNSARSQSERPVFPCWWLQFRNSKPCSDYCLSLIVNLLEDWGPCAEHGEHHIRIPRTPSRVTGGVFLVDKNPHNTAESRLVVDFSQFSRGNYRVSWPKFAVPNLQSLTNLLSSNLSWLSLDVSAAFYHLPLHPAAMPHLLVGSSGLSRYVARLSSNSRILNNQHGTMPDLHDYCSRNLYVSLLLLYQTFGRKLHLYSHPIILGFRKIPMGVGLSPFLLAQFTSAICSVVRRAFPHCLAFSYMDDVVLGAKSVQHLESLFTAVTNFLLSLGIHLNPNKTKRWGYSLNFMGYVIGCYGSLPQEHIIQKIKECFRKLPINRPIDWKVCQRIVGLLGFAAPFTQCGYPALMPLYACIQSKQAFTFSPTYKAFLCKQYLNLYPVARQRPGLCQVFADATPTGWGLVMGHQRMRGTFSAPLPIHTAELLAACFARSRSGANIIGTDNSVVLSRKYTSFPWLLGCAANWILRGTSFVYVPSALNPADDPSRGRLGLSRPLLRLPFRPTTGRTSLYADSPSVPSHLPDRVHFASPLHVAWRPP

For the compound `CC(C)Nc1cccnc1N1CCN(C(=O)c2ccc(C(=O)NCCCO)cc2)CC1` [Compound No. 2, 1-[N-(3-Hydroxypropyl)carbamoyl]-4-[1-[3-(isopropylamino)-2-pyridyl]piperazin-4-yl-carbonyl]benzene], in experiment [1], the inhibition at 0.1 µg/mL was 34% and the inhibition at 1 µg/mL came out at 42%. Also, in experiment [2], the inhibition at 0.1 µg/mL amounted to 35% and the inhibition at 1 µg/mL stood at 40%.

For `CC(C)Nc1cccnc1N1CCN(C(=O)c2ccc(C(=O)N(C)CCO)cc2)CC1` [Compound No. 5, 1-[N-(2-Hydroxyethyl)-N-methylcarbamoyl]-4-[1-[3-(isopropylamino)-2-pyridyl]piperazin-4-yl-carbonyl]benzene], the inhibition at 0.1 µg/mL in experiment [1] worked out at 40%; in experiment [2], 43%. Also, the inhibition at 1 µg/mL in experiment [1] is 48%; in experiment [2], 71%.

As for `CCCN(CCO)C(=O)c1ccc(C(=O)N2CCN(c3ncccc3NC(C)C)CC2)cc1` [Compound No. 7, 1-[N-(2-Hydroxyethyl)-N-propylcarbamoyl]-4-[1-[3-(isopropylamino)-2-pyridyl]piperazin-4-yl-carbonyl]benzene], in experiment [2], the inhibition at 0.1 µg/mL was 21% and the inhibition at 1 µg/mL is 60%.

For `CC(C)Nc1cccnc1N1CCN(C(=O)c2ccc(C(=O)N(CCO)c3ccccc3)cc2)CC1` [Compound No. 11, 1-[N-(2-Hydroxyethyl)-N-phenylcarbamoyl]-4-[1-[3-(isopropylamino)-2-pyridyl]piperazin-4-yl-carbonyl]benzene], the inhibition at 0.1 µg/mL in experiment [1] was found to be 20%; in experiment [2], 43%. The inhibition at 1 µg/mL in experiment [1] turned out to be 76%; in experiment [2], 50%.

`CCN(CC)C(=O)c1ccc(C(=O)N2CCN(c3ncccc3NC(C)C)CC2)cc1` [Compound No. 13, 1-[N,N-Diethylcarbamoyl]-4-[1-[3-(isopropylamino)-2-pyridyl]piperazin-4-yl-carbonyl]benzene]: in experiment [1], the inhibition at 0.1 µg/mL turned out to be 55% and the inhibition at 1 µg/mL is 70%.

On to `CC(C)Nc1cccnc1N1CCN(C(=O)c2ccc(C(=O)N(C(C)C)C(C)C)cc2)CC1` [Compound No. 14, 1-[N,N-Bis(1-methylethyl)carbamoyl]-4-[1-[3-(isopropylamino)-2-pyridyl]piperazin-4-yl-carbonyl]benzene], for which, in experiment [2], the inhibition at 0.1 µg/mL came out at 52% and the inhibition at 1 µg/mL is 59%.

As for `CC(O)CN(CC(C)O)C(=O)c1ccc(C(=O)N2CCN(c3ncccc3NC(C)C)CC2)cc1` (centres unmarked) [Compound No. 16, 1-[N,N-Bis(2-hydroxypropyl)carbamoyl]-4-[1-[3-(isopropylamino)-2-pyridyl]piperazin-4-yl-carbonyl]benzene], the inhibition at 0.1 µg/mL in experiment [1] stood at 45%; in experiment [2], 52%. Besides, the inhibition at 1 µg/mL amounted to 78% in experiment [1] and 65% in experiment [2].

On to `CC(C)Nc1cccnc1N1CCN(C(=O)c2ccc(C(=O)NCCOCCO)cc2)CC1` [Compound No. 17, 1-[N-[2-(2-Hydroxyethoxy)ethyl]carbamoyl]-4-[1-[3-(isopropylamino)-2-pyridyl]piperazin-4-yl-carbonyl]benzene], for which, in experiment [2], the inhibition at 0.1 µg/mL was 35% and the inhibition at 1 µg/mL was found to be 53%.

In the case of `CCNc1cccnc1N1CCN(C(=O)c2ccc(C(=O)N(CC)CCO)cc2)CC1` [Compound No. 18, 1-[N-Ethyl-N-(2-hydroxyethyl)carbamoyl]-4-[1-[3-(ethylamino)-2-pyridyl]piperazin-4-yl-carbonyl]benzene], in experiment [1], the inhibition at 0.1 µg/mL stood at 28% and the inhibition at 1 µg/mL came to 63%.

Take `CC(C)Nc1cccnc1N1CCN(C(=O)c2ccc(C(=O)N3CCN(C)CC3)cc2)CC1` [Compound No. 20, 1-[4-[1-[3-(Isopropylamino)-2-pyridyl]piperazin-4-yl-carbonyl]benzoyl]-4-methylpiperazine]: in experiment [1], the inhibition at 0.1 µg/mL is 43% and the inhibition at 1 µg/mL turned out to be 58%.

Regarding `CCN1CCN(C(=O)c2ccc(C(=O)N3CCN(c4ncccc4NC(C)C)CC3)cc2)CC1` [Compound No. 21, 4-Ethyl-1-[4-[1-[3-(isopropylamino)-2-pyridyl]piperazin-4-yl-arbonyl]benzoyl]piperazine], in experiment [2], the inhibition at 0.1 µg/mL worked out at 20% and the inhibition at 1 µg/mL was 64%.

For the compound `CC(C)Nc1cccnc1N1CCN(C(=O)c2ccc(C(=O)N3CCN(CCOCCO)CC3)cc2)CC1` [Compound No. 32, 4-[2-(2-Hydroxyethoxy)ethyl]-1-[4-[1-[3-(isopropylamino)-2-pyridyl]piperazin-4-yl-carbonyl]benzoyl]piperazine], in experiment [1], the inhibition at 0.1 µg/mL is 40% and the inhibition at 1 µg/mL was 71%. For the same compound, in experiment [2], the inhibition at 0.1 µg/mL turned out to be 27% and the inhibition at 1 µg/mL stood at 58%.

On to `CCNc1cccnc1N1CCN(C(=O)c2ccc(C(=O)N3CCN(CCO)CC3)cc2)CC1` [Compound No. 33, 1-[4-[1-[3-(Ethylamino)-2-pyridyl]piperazin-4-yl-carbonyl]benzoyl]-4-(2-hydroxyethyl)piperazine], for which, in experiment [1], the inhibition at 0.1 µg/mL was 37% and the inhibition at 1 µg/mL is 69%.

As for `CC(C)Nc1cccnc1N1CCN(C(=O)c2ccc(C(=O)NC(C)(C)CO)cc2)CC1` [Compound No. 34, 1-[N-(1,1-Dimethyl-2-hydroxyethyl)carbamoyl]-4-[1-[3-(isopropylamino)-2-pyridyl]piperazin-4-yl-carbonyl]benzene], in experiment [1], the inhibition at 0.1 µg/mL came out at 41% and the inhibition at 1 µg/mL amounted to 53%. In experiment [2], the inhibition at 0.1 µg/mL is 43% and the inhibition at 1 µg/mL came to 51%.

Consider `CC(C)Nc1cccnc1N1CCN(C(=O)c2ccc(C(=O)N[C@@H](C)CO)cc2)CC1` [Compound No. 35, 1-[N-[(1S)-2-Hydroxy-1-methylethyl]carbamoyl]-4-[1-[3-(isopropylamino)-2-pyridyl]piperazin-4-yl-carbonyl]benzene], for which, in experiment [1], the inhibition at 0.1 µg/mL is 62% and the inhibition at 1 µg/mL is 82%.

Regarding `CC(C)Nc1cccnc1N1CCN(C(=O)c2ccc(C(=O)N[C@H](CO)C(C)C)cc2)CC1` [Compound No. 38, 1-[N-[(1S)-2-Hydroxy-1-(1-methylethyl)ethyl]carbamoyl]-4-[1-[3-(isopropylamino)-2-pyridyl]piperazin-4-yl-carbonyl]benzene], the inhibition at 0.1 µg/mL in experiment [1] was determined as 50%; in experiment [2], 20%. Moreover, the inhibition at 1 µg/mL is 67% in experiment [1] and 78% in experiment [2].

Take `CC(C)Nc1cccnc1N1CCN(C(=O)c2ccc(C(=O)N[C@H](CO)CC3CCCCC3)cc2)CC1` [Compound No. 47, 1-[N-[(1S)-1-(Cyclohexylmethyl)-2-hydroxyethyl]carbamoyl]-4-[1-[3-(isopropylamino)-2-pyridyl]piperazin-4-yl-carbonyl]benzene]: in experiment [2], the inhibition at 0.1 µg/mL stood at 43% and the inhibition at 1 µg/mL was found to be 54%.

In the case of `CC(C)Nc1cccnc1N1CCN(C(=O)c2ccc(C(=O)NC[C@H](C)O)cc2)CC1` [Compound No. 56, 1-[N-[(2S)-2-Hydroxypropyl]carbamoyl]-4-[1-[3-(isopropylamino)-2-pyridyl]piperazin-4-yl-carbonyl]benzene], in experiment [1], the inhibition at 0.1 µg/mL was found to be 58% and the inhibition at 1 µg/mL stood at 76%.

As to `CC(C)Nc1cccnc1N1CCN(C(=O)c2ccc(C(=O)NCC3CCCO3)cc2)CC1` (centres unmarked) [Compound No. 72, 4-[1-[3-(Isopropylamino)-2-pyridyl]piperazin-4-yl-carbonyl]-1-[N-[(tetrahydrofuran-2-yl)methyl]carbamoyl]benzene], in experiment [1], the inhibition at 0.1 µg/mL turned out to be 51% and the inhibition at 1 µg/mL came out at 63%.

`CC(C)Nc1cccnc1N1CCN(C(=O)c2ccc(C(=O)N3CCSCC3)cc2)CC1` [Compound No. 77, 4-[1-[3-(Isopropylamino)-2-pyridyl]piperazin-4-yl-carbonyl]-1-(thiomorpholin-4-yl-carbonyl)benzene]: in experiment [2], the inhibition at 0.1 µg/mL is 28% and the inhibition at 1 µg/mL came to 40%.

In the case of `CC(C)Nc1cccnc1N1CCN(C(=O)c2ccc(C(=O)NCCN3CCCCC3)cc2)CC1` [Compound No. 81, 4-[1-[3-(Isopropylamino)-2-pyridyl]piperazin-4-yl-carbonyl]-1-[N-[2-(piperidin-1-yl)ethyl]carbamoyl]benzene], in experiment [2], the inhibition at 0.1 µg/mL turned out to be 32% and the inhibition at 1 µg/mL worked out at 60%.

For the origin of these results see patent US5922871A, “Terephthalamide derivatives” (Dongwha Pharmaceutical Ind. Co., Ltd., priority 1997, dated 1999).
